Series [1] has as its system W256. The series is described as follows: Antitumor activity against rat Walker 256 cells allografted in Sprague-Dawley rat assessed as animal survival days at 2.5 mg/kg/day, ip. To be noted: route intraperitoneal. It counts as functional.
Series [2] concerns Ehrlich. The series is described as follows: Antineoplastic activity against mouse EAC allografted in CF1 mouse assessed as packed cell volume on day 7 measured at 33 mg/kg (reference value: 32.75 +/- 7.87%). It counts as functional.
Series [3] deals with Ehrlich. Put plainly: Antineoplastic activity against mouse EAC allografted in CF1 mouse assessed as ascites volume on day 7 measured at 33 mg/kg (reference value: 4.1 +/- 1.24 mL). It counts as functional.
Series [4] concerns Ehrlich. The series is described as follows: Antineoplastic activity against mouse EAC allografted in CF1 mouse assessed as tumor growth inhibition on day 7 measured at 33 mg/kg. It counts as functional. To be noted: 168 h, read-out: TGI.
In series [5] the test system is W256. Put plainly: Antitumor activity against rat Walker 256 cells allografted in Sprague-Dawley rat assessed as survival time (treated/control) at 2.5 mg/kg/day, ip. In kind it is functional. The conditions noted are these: route intraperitoneal.
Series [6] concerns P388. The series is described as follows: Antitumor activity against mouse P388 cells allografted in DBA/2 mouse assessed as animal survival days at 20 mg/kg/day, ip. In kind it is functional. The conditions noted are these: route intraperitoneal.
Series [7] relates to P388. The series is described as follows: Antitumor activity against mouse P388 cells allografted in DBA/2 mouse assessed as median survival time of treated versus control mice (T/C) at 20 mg/kg/day, ip. In kind it is functional. To be noted: route intraperitoneal.
For series [8], the system named is Ehrlich. Put plainly: Antineoplastic activity against mouse EAC allografted in CF1 mouse assessed as animal survival on day 7 measured at 33 mg/kg. It counts as functional, organism-based. Set-up: dose 33 mg/kg.
A short description of series [9]: Acute toxicity in CF1 mouse. It counts as organism-based. To be noted: in vivo.

The source made the active and inactive calls. The rule behind the calls is not given here.

Usually T/C stands for the result in the treated group divided by that in the control group, in per cent. With `O=C(CCCNC(=O)OCc1ccccc1)OC(Br)CBr` (configuration not stated), the Survival turned out to be 18.1 days in the series with W256 [1] and 8.1 days in the series on P388 [6]. Further, the values for the Activity in the series with Ehrlich [2] and with Ehrlich [3] were 2% and 0.6 mL, respectively. In addition, the inhibition in vivo at 33 mg/kg in the series with Ehrlich [4] was found to be 98.7%. Besides, the results for the T/C in the series with W256 [5] and with P388 [7] were 226% and 100%, respectively.

As to `N[C@@H](Cc1ccc(N(CCCl)CCCl)cc1)C(=O)O`, the Survival in the series with W256 [1] was determined as 23 days. Also, the result in the series with Ehrlich [8] was Active. Moreover, the Activity worked out at 3% in the series with Ehrlich [2] and 0.1 mL in the series on Ehrlich [3]. Moreover, the inhibition in vivo at 33 mg/kg in the series with Ehrlich [4] came out at 99%. Moreover, the T/C in the series on W256 [5] came to 305%.

The LD50 is the dose expected to kill half of the subjects tested. The low end stands for greater toxicity, the high end for lower toxicity. `O=C(CNC(=O)OCc1ccccc1)OC(Br)CBr` (configuration not stated): the Survival in the series with W256 [1] stood at 10.1 days; with P388 [6], 2.2 days. In addition, the result with Ehrlich [8] was Active. Moreover, the Activity with Ehrlich [2] turned out to be 0%; in the series on Ehrlich [3] it was 0 mL. Further, the inhibition in vivo at 33 mg/kg with Ehrlich [4] stood at 100%. Moreover, the LD50 in series [9] turned out to be 370 µmol/kg. Further, the T/C in the series on W256 [5] was found to be 135%; with P388 [7], 28%.

As for `C=COC(=O)[C@H](Cc1c[nH]c2ccccc12)NC(=O)OCc1ccccc1`, the Survival with W256 [1] came out at 8 days. Besides, the outcome with Ehrlich [8] was Active. Besides, the values for the Activity with Ehrlich [2] and with Ehrlich [3] were 14.3% and 1.3 mL, respectively. The inhibition in vivo at 33 mg/kg with Ehrlich [4] was 87%. Further, the T/C with W256 [5] amounted to 106%.

In the case of `C#CCOC(=O)CCCNC(=O)OCc1ccccc1`, the Survival was 23 days in the series with W256 [1] and 6.7 days with P388 [6]. The result in the series on Ehrlich [8] was Active. Also, the Activity in the series on Ehrlich [2] amounted to 34.5%; in the series on Ehrlich [3], 2.3 mL. Also, the inhibition in vivo at 33 mg/kg in the series with Ehrlich [4] worked out at 20%. Besides, the T/C in the series with W256 [5] stood at 305%; in the series with P388 [7] it was 83%.

As for `CC(C)C[C@H](NC(=O)OCc1ccccc1)C(=O)OC(Br)CBr` (some centres not stated), the Survival in the series on W256 [1] came to 8.5 days; in the series on P388 [6] it was 9.1 days. The outcome with Ehrlich [8] was Active. Further, the Activity was determined as 14% with Ehrlich [2] and 0.002 mL in the series with Ehrlich [3]. Further, in the series with Ehrlich [4], the inhibition in vivo at 33 mg/kg was determined as 99%. This compound also gave an LD50 in series [9] of 500 µmol/kg. Also, the T/C is listed as 113% in the series with W256 [5] and 112% with P388 [7].

As for `C#CCOC(=O)[C@H](CC(C)C)NC(=O)OCc1ccccc1`, the outcome in the series on Ehrlich [8] was Active. For the same compound, the values for the Activity in the series on Ehrlich [2] and in the series with Ehrlich [3] were 23% and 0.5 mL, respectively. For the same compound, the inhibition in vivo at 33 mg/kg in the series with Ehrlich [4] was determined as 85%. In [9], this compound yielded an LD50 of 1650 µmol/kg. Moreover, the Survival in the series with P388 [6] was 9.1 days. Also, the T/C with P388 [7] was found to be 112%.

Values taken from ChEMBL document CHEMBL3271995, “Antineoplastic agents. 2. Structure-activity studies on N-protected vinyl, 1,2-dibromoethyl, and cyanomethyl esters of several amino acids” (J Med Chem, 1977).
